# Read-outs that look alike come from different tables or passages of the source.
# What was measured:
# [1] = INS HCl solubility and stability in isotonic buffers of different pH (5 mg/ml in buffer, diluted to 1 mg/ml, LC-MS); type: physicochemical
# Experimental: Analytical HPLC-MS was performed using an Agilent 1260 series Liquid Chromatograph/Mass Selective Detector (MSD, Single Quadrupole) equipped with an electrospray interface and a UV diode array detector. Analyses were performed on an ACE C8, 50×3.0 mm, 3 μm column, with an isocratic 0.1% formic acid/ACN (19%) eluent, at a rate of 1 ml/min over a period of 5 minutes. UV absorption was measured at 220 nm and 215-395 nm. MS analysis was performed with ESI (electron spray ionization) with a positive ionization method. PBS isotonic buffer was prepared from 1 tablet of Sigma Phosphate buffer saline P4417, in 200 ml of deionized water (according to product reconstitution instructions). Acetate isotonic buffers were prepared from sodium acetate/acetic acid in water in 150 mM concentration. NaOH 50% solution was used to adjust the pH. NaOAc solution was prepared by dissolving 1.23 gr in 100 ml water. Acetic acid solution was prepared by adding 945 μl of acetic acid to 100 ml water. […] The samples were further diluted to 1 mg/ml before analyzing by HPLC. The samples were prepared by dilution of 80 μl of reaction solution with 320 μl of MeOH. Each sample was filtered through PTFE 0.45 um filter vial. The samples were run in LC-MS and data used for calculation concentration in buffer. All injections for stability assay were performed using 20 μl due to low peak intensity with 2 μl. Final concentration was calculated accordingly.
# HIV-1 = system: HIV-1
# Experimental: This is a phase I/IIa pilot—Proof of Concept, dose escalation study.
# Three cohorts of 3-6 patients (per cohort) received twice a week the Multiple Ascending Doses (MAD*) for up to 8 weeks to evaluate safety, clinical dose and preliminary efficacy for a duration of up to 6 weeks. Interim analysis was performed to decide on the safety of the low dose and continue to a higher dose SC administration. Study Duration: 1 year including screening, treatment and post treatment follow up
# Cohort 1: Three to six (3-6) patients, each one received twice a week the decided MAD* for up to 8 weeks (up to 16 doses per patient). Subcutaneous dose: LOW; 0.05, mg/kg, with escalation to 0.2 mg/kg body weight at week 2-4. Cohort 2: Three to six (3-6) patients, each one received twice a week the decided MAD* for up to 8 weeks (up to 16 doses per patient). Subcutaneous dose: MEDIUM; 0.1 mg/kg, with escalation to 0.3 mg/kg body weight at week 2-4. Cohort 3: Three to six (3-6) patients, each one received twice a week the decided MAD* for up to 8 weeks (up to 16 doses per patient). Subcutaneous dose: HIGH; 0.2 mg/kg, with escalation to 0.4 mg/kg body weight at week 2-4. Interim analysis was performed to decide on the safety of all cohorts' doses and continue to a higher dose, up to 0.2 mg/kg for Cohort 1, up to 0.3 mg/kg for Cohort 2 and up to 0.4 mg/kg for Cohort 3, SC administration.
# Effectiveness of Gammora assessed by reduced Viral load (by 0.5 LOG; Viral Suppression). • 1. Mean Change in CD4+ Cell Count as a Measure of Efficacy and Safety. • 2. Reduced viral protein p24 antigen. • 3. Functional Assessment of HIV Infection (FAHI) questionnaire.
# CD4 T-cell = experiment: Phase I/IIa clinical trial: CD4 T-cell count; type: in vivo, human; conditions: patients treated with INS (part II with lopinavir plus ritonavir)
# Experimental: Reduced viral protein p24 antigen. • 3. Functional Assessment of HIV Infection (FAHI) questionnaire.
# In addition, the preliminary results indicated treatment efficacy as measured by decrease in viral load in HIV patients. Most patients achieved significant reduction in viral load for up to 90% from baseline during the first 5 weeks of SC administration, meeting its exploratory endpoint. […] In this study, patients were treated for 5 weeks with a combined treatment of the subcutaneous composition as previous (0.2-0.4 mg/kg twice a week) and commercially available lopinavir 800 mg plus ritonavir 200 mg daily. The control group received only lopinavir 800 mg plus ritonavir 200 mg for additional 5 weeks.
# [2] = Phase I/IIa clinical trial: safety and tolerability; type: in vivo, human; conditions: HIV patients, 5 weeks SC administration
# Source text: Patients are monitored for adverse events (AE) of the INS peptide such as rash, acute allergic reaction, bronchospasm, respiratory distress, and acute vascular leak syndrome. If a severe administration related reaction occurs, the drug administration is stopped. Blood chemistry, hematology, coagulation, and urinalysis are repeated on Days 1, 4, 8, 11, 15, 18, 22, 25 at the clinic visits.
# The primary safety endpoint is the frequency, severity, and duration of side effects. Number of participants with treatment-related adverse events as assessed by CTCAE v4.03, are evaluated though study completion. Main adverse events evaluation is based on DADS Toxicity criteria (Division of AIDS DADS Table for Grading the Severity of Adult and Paediatric Adverse Events, Corrected Version 2.1): • Viral load • Lymphopenia/Neutropenia • Immuno-reaction over reaction/cytokine storm • Infection surrounding the administration site • Liver function (lab tests) • Kidney function (lab tests)
# Incidence of withdrawal (drop-out rate) due to side effects is evaluated throughout the study.
# [3] = PBS buffer pH 7.4, at 5° C. and at 25° C., 0 hours
# [4] = acetate buffer pH 4, 5° C., 0 hours
# [5] = acetate buffer pH 4, 5° C., 24 hours
# [6] = acetate buffer pH 4, 5° C., 168 hours
# [7] = acetate buffer pH 4, 25° C., 0 hours
# [8] = acetate buffer pH 4, 25° C., 24 hours
# [9] = acetate buffer pH 4, 25° C., 168 hours
# [10] = acetate buffer pH 6, 5° C., 0 hours
# [11] = acetate buffer pH 6, 5° C., 24 hours
# [12] = acetate buffer pH 6, 5° C., 168 hours
# [13] = acetate buffer pH 6, 25° C., 0 hours
# [14] = acetate buffer pH 6, 25° C., 24 hours
# [15] = acetate buffer pH 6, 25° C., 168 hours
# [16] = 5 weeks INS 0.2-0.4 mg/kg SC twice a week + lopinavir 800 mg plus ritonavir 200 mg daily
sequence,measurement,setting,value
WTAVQMAVFIHNFKRK [INS],Area,[1]; [3],201.90 mAU*S
same,Assay %,[1]; [3],2.91%
same,Concentration calculated from LC-MS data,[1]; [3],30 µg/mL
same,Area,"[1]; PBS buffer pH 7.4, at 5° C. and at 25° C., 24 hours",Not observed
same,Area,"[1]; PBS buffer pH 7.4, at 5° C. and at 25° C., 168 hours",Not observed
same,Solubility in PBS buffer pH 7.4,[1]; a white precipitate was observed,no solubility at all
same,Assay %,[1]; [4],66.84%
same,Concentration calculated from LC-MS data,[1]; [4],646 µg/mL
same,Assay %,[1]; [5],62.32%
same,Concentration calculated from LC-MS data,[1]; [5],602 µg/mL
same,Assay %,[1]; [6],62.00%
same,Concentration calculated from LC-MS data,[1]; [6],599 µg/mL
same,Assay %,[1]; [7],66.87%
same,Concentration calculated from LC-MS data,[1]; [7],646 µg/mL
same,Assay %,[1]; [8],66.25%
same,Concentration calculated from LC-MS data,[1]; [8],640 µg/mL
same,Assay %,[1]; [9],36.75%
same,Concentration calculated from LC-MS data,[1]; [9],355 µg/mL
same,Assay %,[1]; [10],73.49%
same,Concentration calculated from LC-MS data,[1]; [10],729 µg/mL
same,Assay %,[1]; [11],53.43%
same,Concentration calculated from LC-MS data,[1]; [11],530 µg/mL
same,Assay %,[1]; [12],44.15%
same,Concentration calculated from LC-MS data,[1]; [12],438 µg/mL
same,Assay %,[1]; [13],73.49%
same,Concentration calculated from LC-MS data,[1]; [13],729 µg/mL
same,Assay %,[1]; [14],52.42%
same,Concentration calculated from LC-MS data,[1]; [14],520 µg/mL
same,Assay %,[1]; [15],21.98%
same,Concentration calculated from LC-MS data,[1]; [15],218 µg/mL
same,Assay at time zero,[1]; acetate buffers pH 4 and pH 6,about 70%
same,Stability at 5° C. versus 25° C.,[1]; acetate buffers pH 4 and pH 6,better stability at 5 °C compared to the samples at 25 °C
same,HIV-1 RNA count,HIV-1; [16],below 300 copies/mL
same,Reduction in viral load from baseline,HIV-1; [16],up to 99%
same,Reduction in viral load from baseline,"HIV-1; most patients, first 5 weeks of SC administration, INS alone",up to 90%
same,Increase of CD4 T-cell count relative to baseline,CD4 T-cell,up to 97%
same,Side effects and harm to immune system (monitored by CD4 cells),[2],no side effects and no harm to immune system

# Reference: patent US20220233652A1, “Pharmaceutical Compositions Comprising Integration-Promoting Peptides” (priority 2018, published 2022)
